Assay [1] can be described thus: Inhibition against PP1 at 100 uM.
The target of assay [2] is T1, Serine-threonine protein phosphatase 2A regulatory subunit (Gallus gallus) (UniProt Q8AWE3).
T1 sequence (whole entry): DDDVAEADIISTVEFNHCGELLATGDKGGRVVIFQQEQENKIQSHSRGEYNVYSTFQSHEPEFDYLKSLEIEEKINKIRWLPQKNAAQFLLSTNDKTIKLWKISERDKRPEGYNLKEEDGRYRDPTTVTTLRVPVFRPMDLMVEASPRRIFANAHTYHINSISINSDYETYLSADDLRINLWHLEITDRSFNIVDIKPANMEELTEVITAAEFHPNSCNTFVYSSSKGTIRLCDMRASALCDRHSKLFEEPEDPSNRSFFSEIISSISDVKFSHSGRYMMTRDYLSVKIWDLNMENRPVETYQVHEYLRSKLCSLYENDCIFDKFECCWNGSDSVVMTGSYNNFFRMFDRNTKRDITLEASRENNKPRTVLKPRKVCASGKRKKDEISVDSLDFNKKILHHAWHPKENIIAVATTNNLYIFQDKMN
Kind of assay: Inhibition against PP2A at 100 uM.

A short description of assay [3]: Selectivity was calculated against protein phosphatase 1.
Assay [4] can be described thus: Inhibitory concentration against PP1 was determined.
Assay [5] has as its target T2, Serine-threonine protein phosphatase 2A regulatory subunit (Gallus gallus, UniProt Q8AWE3).
T2 sequence (Q8AWE3 whole entry): T1 sequence (whole entry)
Briefly: Concentration required to inhibit the action of protein phosphatase 2A.

Assay [6] is filed under the species Homo sapiens. Kind of assay: Selectivity against Protein phosphatase 2A.
The nature of assay [7]: Selectivity was evaluated against Protein phosphatase 1.

What is called inhibition is the relative decrease from the control value, in per cent. The low end stands for little suppression, the high end for strong suppression. As usually defined, the IC50 is the concentration that inhibits the measured activity by half. A lower IC50 goes with higher potency.

Some results are limits rather than exact numbers.

As to `COC(=O)C1C(C(=O)OC)[C@H]2C=C[C@@H]1O2` (some centres not stated), the inhibition in assay [1] stood at 46%; in assay [2], 6%. Besides, in assay [3], the Selectivity was above 40. In addition, the IC50 in assay [4] is 50 µM; in assay [5] it was above 2000 µM.

In assay [6], `C[C@@](O)(/C=C/[C@H]1CC=CC(=O)O1)[C@@H](C[C@@H](O)\C=C/C=C\C=C\CO)OP(=O)(O)O` [FOSTRIECIN SODIUM] returned a Selectivity above 40000. Further, the IC50 turned out to be 130 µM in assay [4] and 0.0034 µM in assay [5].

Take `O=C1OC(=O)C2C1[C@@H]1C=C[C@H]2S1` (some centres not stated): the inhibition in assay [1] and in assay [2] was 0% in each case.

On to `COC(=O)C1C(C(=O)OC)[C@H]2C=C[C@@H]1S2` (some centres not stated), for which the inhibition in assay [1] and in assay [2] was 3% in each case.

Regarding `COC[C@@H]([C@H](O)[C@H](O)C(=O)NCC[C@H](C)c1nc(/C=C/C[C@@H]2O[C@]3(C[C@@H](O)[C@@H]2C)O[C@H]([C@H](C[C@H](O)[C@H](C)[C@H](O)[C@H](C)/C=C(C)/C(C)=C/C=C/C(C)=C\C#N)OC)[C@H](OP(=O)(O)O)C3(C)C)co1)N(C)C` [CALYCULIN A], the midpoint of inhibition in assay [5], the IC50, lay at 0.002 µM.

For the compound `O=C1OC(=O)C2C1[C@@H]1CC[C@H]2O1` (some centres not stated), the inhibition in assay [1] came to 90%; in assay [2], 97%. Besides, the IC50 in assay [4] amounted to 2.4 µM.

`C[C@@]12C(=O)OC(=O)[C@]1(C)[C@H]1CC[C@@H]2O1` [CANTHARIDIN]: in assay [4], the IC50 came to 0.16 µM.

The compound `O=C1NC(=O)C2C1[C@@H]1C=C[C@H]2S1` (some centres not stated) came in with a Selectivity in assay [7] of 34. Further, the results for the inhibition in assay [1] and in assay [2] were 87% and 30%, respectively. Besides, the IC50 was found to be 12.5 µM in assay [4] and 426 µM in assay [5].
